This note sets out measurements from patent US20190117637A1 (priority 2016, published 2019).

Assay [1] relates to rats. The settings on record: rat; pretreatment quetiapine 10 mg/kg i.p.; heroin 0.032 mg/kg/infusion i.v., five lever presses per infusion; FIG. 2.
The test system of assay [2] is rats. The settings on record: rat, in vivo.

In the case of `OCCOCCN1CCN(C2=Nc3ccccc3Sc3ccccc32)CC1` [quetiapine], the “self-administration (reinforcing effect) of heroin” value in the assay on rats [1] was “decreased”.

Consider `COc1ccc2c3c1O[C@H]1C(=O)CC[C@@]4(O)[C@@H](C2)N(C)CC[C@]314` [oxycodone], for which, in the assay with rats [2], the “average tail flick latency” value is reported as “about 7.3 seconds” and the “median tail flick latency” value was about 5.8 s.
